Where two headings read alike, the source gives them in different places.
Legend:
Type in all cases: in vivo
Commelina benghalensis = assay: Greenhouse pre-emergence (PRE) herbicidal test on COMBE; conditions: Commelina benghalensis, pre-emergence; for inhibition at 4 g/ha: use rate 4 gai/ha
Outline: (§1)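 Seeds were sown per species in loamy sand with ~3.0% humus, treated pre-emergence and kept at 10-25° C or 20-35° C depending on species. Damage was scored at 20 days after treatment on a 0-100 scale (100 = no emergence or complete destruction of above-ground parts, 0 = no damage).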

Ipomoea hederacea = assay: Greenhouse post-emergence (POST) herbicidal test on IPOHE; conditions: Ipomoea hederacea, post-emergence
Outline: (§2)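 Injury was rated visually on a 0–100 scale, where 0 is normal growth and 100 is complete above-ground kill, 20 days after treatment. Test plants at 3–15 cm height received a post-emergence spray of water-dispersed active from 5% emulsion concentrates. Pots held loamy sand with ~3.0% humus, at 10-25 °C or 20-35 °C depending on species.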

Amaranthus retroflexus = assay: Greenhouse pre-emergence (PRE) herbicidal test on AMARE; conditions: Amaranthus retroflexus, pre-emergence, 480 h, PRE, 20 DAT; for inhibition at 2 g/ha: AMARE
Outline: as §1

Lolium multiflorum = assay: Greenhouse pre-emergence (PRE) herbicidal test on LOLMU; conditions: Lolium multiflorum, pre-emergence; for pest or weed control at 2 g/ha: I-3 solo 2 gai/ha
Outline: as §1

Echinochloa crus-galli = assay: Greenhouse post-emergence (POST) herbicidal test on ECHCG
Outline: as §2

[1] = 480 h, PRE, use rate 2 gai/ha, 20 DAT, read-out: % activity

Compound: COc1c(Cl)cc(F)c(F)c1Nc1nc(N)nc(C(C)(C)F)n1 [Compound I-3]
- pest or weed control at 2 g/ha (Commelina benghalensis; 432 h, PRE, COMBE, I-3 solo 2 gai/ha, 18 DAT, read-out: % activity): 50%
- inhibition at 2 g/ha (Commelina benghalensis; 480 h, COMBE PRE, 20 DAT, use rate 2 gai/ha, read-out: % activity): 0%
- inhibition at 8 g/ha (Commelina benghalensis; 480 h, COMBE PRE, 20 DAT, use rate 8 gai/ha, read-out: % activity): 75%
- pest or weed control at 8 g/ha (Commelina benghalensis; 480 h, PRE, 8 gai/ha, 20 DAT): 75%
- inhibition at 2 g/ha (Commelina benghalensis; 480 h, PRE, COMBE, 2 gai/ha, 20 DAT, read-out: % activity solo application): 10%
- inhibition at 8 g/ha (Commelina benghalensis; 480 h, PRE, COMBE, 8 gai/ha, 20 DAT, read-out: % activity solo application): 10%
- inhibition at 2 g/ha (Commelina benghalensis; 480 h, PRE, COMBE, use rate 2 gai/ha, 20 DAT, read-out: solo application % activity): 10%
- inhibition at 4 g/ha (Commelina benghalensis; 480 h, PRE, COMBE, 20 DAT): 35%
- inhibition at 8 g/ha (Commelina benghalensis; 480 h, PRE, COMBE, use rate 8 gai/ha, 20 DAT, read-out: % activity): 70%
- inhibition at 8 g/ha (Commelina benghalensis; 480 h, PRE, COMBE, use rate 8 gai/ha, 20 DAT, read-out: solo application % activity): 10%
- inhibition at 2 g/ha (Commelina benghalensis; [1]): 10%
- inhibition at 8 g/ha (Commelina benghalensis; 480 h, PRE, use rate 8 gai/ha, 20 DAT, read-out: % activity): 35%
- inhibition at 8 g/ha (Commelina benghalensis; COMBE PRE, use rate 8 gai/ha, read-out: % activity): 60%
- inhibition at 2 g/ha (Commelina benghalensis; PRE, COMBE, use rate 2 gai/ha, read-out: % activity): 0%
- inhibition at 4 g/ha (Commelina benghalensis; PRE, COMBE): 25%
- inhibition at 8 g/ha (Commelina benghalensis; PRE, COMBE, use rate 8 gai/ha, read-out: % activity): 75%
- pest or weed control at 8 g/ha (Ipomoea hederacea; 480 h, POST, 8 gai/ha, 20 DAT): 90%
- inhibition at 2 g/ha (Ipomoea hederacea; 480 h, POST, IPOHE, 2 gai/ha, 20 DAT, read-out: % activity solo application): 80%
- inhibition at 8 g/ha (Ipomoea hederacea; 480 h, POST, IPOHE, 8 gai/ha, 20 DAT, read-out: % activity solo application): 70%
- inhibition at 2 g/ha (Ipomoea hederacea; IPOHE POST, use rate 2 gai/ha, read-out: % activity): 65%
- pest or weed control at 2 g/ha (Amaranthus retroflexus; 2 gai/ha): 90%
- inhibition at 2 g/ha (Amaranthus retroflexus; 2 gai/ha, read-out: % activity solo application): 60%
- inhibition at 2 g/ha (Amaranthus retroflexus; use rate 2 gai/ha, read-out: solo application % activity): 60%
- inhibition at 2 g/ha (Lolium multiflorum; 432 h, PRE, LOLMU, 2 gai/ha, 18 DAT, read-out: % activity solo application): 10%
- inhibition at 8 g/ha (Lolium multiflorum; 432 h, PRE, LOLMU, 8 gai/ha, 18 DAT, read-out: % activity solo application): 70%
- pest or weed control at 2 g/ha (Lolium multiflorum; 432 h, PRE, LOLMU, 18 DAT, read-out: % activity): 10%
- pest or weed control at 8 g/ha (Lolium multiflorum; 432 h, PRE, LOLMU, I-3 solo 8 gai/ha, 18 DAT): 70%
- inhibition at 8 g/ha (Lolium multiflorum; 480 h, LOLMU PRE, 20 DAT, use rate 8 gai/ha, read-out: % activity): 90%
- pest or weed control at 8 g/ha (Lolium multiflorum; 480 h, PRE, 8 gai/ha, 20 DAT): 90%
- inhibition at 8 g/ha (Lolium multiflorum; 480 h, PRE, LOLMU, 8 gai/ha, 20 DAT, read-out: % activity solo application): 95%
- pest or weed control at 2 g/ha (Lolium multiflorum; 480 h, PRE, LOLMU, 20 DAT, read-out: % activity): 25%
- inhibition at 2 g/ha (Lolium multiflorum; 480 h, PRE, LOLMU, use rate 2 gai/ha, 20 DAT, read-out: solo application % activity): 50%
- inhibition at 4 g/ha (Lolium multiflorum; 480 h, PRE, LOLMU, use rate 4 gai/ha, 20 DAT): 80%
- inhibition at 2 g/ha (Lolium multiflorum; [1]): 20%
- inhibition at 2 g/ha (Lolium multiflorum; PRE, LOLMU, use rate 2 gai/ha, read-out: % activity): 40%
- % activity (Echinochloa crus-galli; ECHCG POST, use rate 2 gai/ha): 25%
- % activity (Echinochloa crus-galli; ECHCG POST, use rate 8 gai/ha): 40%
- inhibition at 2 g/ha (Echinochloa crus-galli; Echinochloa crus-galli, post-emergence, 432 h, POST, ECHCG, 2 gai/ha, 18 DAT, read-out: % activity solo application): 0%
- pest or weed control at 2 g/ha (Echinochloa crus-galli; Echinochloa crus-galli, post-emergence, 432 h, POST, ECHCG, I-3 solo 2 gai/ha, 18 DAT): 0%
- inhibition at 2 g/ha (Echinochloa crus-galli; Echinochloa crus-galli, post-emergence, 480 h, ECHCG POST, 20 DAT, use rate 2 gai/ha, read-out: % activity): 10%
- inhibition at 8 g/ha (Echinochloa crus-galli; Echinochloa crus-galli, post-emergence, 480 h, ECHCG POST, 20 DAT, use rate 8 gai/ha, read-out: % activity): 55%
- pest or weed control at 2 g/ha (Echinochloa crus-galli; Echinochloa crus-galli, post-emergence, 480 h, POST, 2 gai/ha, 20 DAT): 10%
- inhibition at 2 g/ha (Echinochloa crus-galli; Echinochloa crus-galli, post-emergence, 480 h, POST, ECHCG, use rate 2 gai/ha, 20 DAT, read-out: solo application % activity): 0%
- inhibition at 4 g/ha (Echinochloa crus-galli; Echinochloa crus-galli, post-emergence, 480 h, POST, ECHCG, use rate 4 gai/ha, 20 DAT): 35%
- inhibition at 8 g/ha (Echinochloa crus-galli; Echinochloa crus-galli, post-emergence, 480 h, POST, ECHCG, use rate 8 gai/ha, 20 DAT, read-out: % activity): 50%
- inhibition at 8 g/ha (Echinochloa crus-galli; Echinochloa crus-galli, post-emergence, 480 h, POST, ECHCG, use rate 8 gai/ha, 20 DAT, read-out: solo application % activity): 10%
- inhibition at 8 g/ha (Echinochloa crus-galli; Echinochloa crus-galli, post-emergence, ECHCG POST, use rate 8 gai/ha, read-out: % activity): 35%

From patent US20260007133A1, “HERBICIDAL COMPOSITION COMPRISING AZINE COMPOUNDS” (BASF SE, priority 2022, published 2026)
